# In US8710064B2, “2-aryl-4-quinazolinones and their pharmaceutical compositions” (China Medical University, priority 2011, dated 2014):
# Legend:
# [1] = tested on: CH27; assay: trypan blue exclusion assay, CH27 cells; type: cell-based; settings: CH27 human lung squamous carcinoma
# Method: CH27 cells (Human lung squamous carcinoma) were grown in monolayer culture in Dulbecco's modified Eagle's medium (DMEM; Life Technologies, Rockville, Md., USA) containing 5% FBS (HyClone, Logan, Utah, USA), 100 U/ml penicillin, […] streptomycin (Gibco BRL, Rockville, Md., USA) and 2 mM glutamine (Merck, Darmstadt, Germany).
# Cell viability was also determined by trypan-blue exclusion assay. Cells were seeded in 6-well plates (2×10^4/well) for trypan blue exclusion assay, and incubated for 24 hours at 37° C. Culture medium containing test compound or DMSO (0.006%) was added to each well, and cells were incubated at 37° C. At indicated time points (0, 24, 48, 72 and 96 hr), cells were suspended with 0.05% trypsin-EDTA, and stained with trypan-blue dye (0.4%) (Sigma). The cell viability was evaluated by the percentage of death relative to the total cell, and cell growth curve was determined by number of live cells relative to the total number of cells.
# The anti-proliferation effects of Compounds 17-31 on M21, CH27, H460, Hep3B and HSC-3 cells were evaluated by the trypan blue exclusion assay.
# [2] = tested on: C6 rat glioma; assay: MTS cell viability assay, C6 glioma cells; type: cell-based; settings: 48 hours, mean±SEM, n=3
# Method: (§1) The human glioma cell lines U87, U251, T98G, U373, and rat glioma cell line RT2 provided by Dr. Michael Hsiao (Genomics Research Center, Academia Sinica, Taiwan) were cultured in Dulbecco's Modified Eagle medium (DMEM) (Caisson) supplemented with 10% fetal bovine serum (FBS) (Sigma-Aldrich), 2 mM L-glutamine (Caisson), 100 U/ml penicillin, and 100 μg/ml streptomycin (Caisson). The rat glioma C6 cell line provided by Dr. Shun-Fen Tzeng (National Cheng Kung University, Taiwan) was cultured in DMEM/F12 (Caisson) supplemented with 10% fetal bovine serum, 2 mM L-glutamine, 100 U/ml penicillin, and 100 μg/ml streptomycin. The human normal glia cell line SVGP12, kindly provided by Dr. Michael Hsiao, was cultured in Minimum Essential Medium (MEM) (Invitrogen) supplemented with 10% fetal bovine serum, 2 mM L-glutamine, 100 U/ml penicillin, and […]. Primary glia cells were prepared by surgery. Cerebral cortices without meninges were dissected from postnatal (P0-P2) Sprague-Dawley (SD, NCKU Laboratory Animal Center) rats and dissociated in 0.05% trypsin-EDTA (Biowest) at 37° C. for 10 min. Culture medium was added and pipetted for several times, and supernatant was removed after a centrifugation at 1,000 rpm for 5 minutes. […]
# (§2) Cell proliferation was determined by MTS (tetrazolium compound, 3-(4,5-dimethylthiazol-2-yl)-5-(3-carboxymethoxyphenyl)-2-(4-sulfophenyl)-2H-tetrazolium) assay (Promega). […] The absorbance of soluble formazan was measured at 490 nm with microplate reader (Molecular device). The cell viability was determined by the percentage of the absorption relative to untreated control. […]
# To investigate the effect of 2-aryl-4-quinazolinone in accordance with the present invention on cell proliferation, glioma cell lines were treated with MJ-66, MJ-68, or MJ-78. […] The cell viability of each group was analyzed by MTS assay (mean±SEM, n=3).
# [3] = tested on: glioma cell lines C6, RT2, U87, U251, U373 and T98G; assay: MTS cell viability assay, glioma cell lines; type: cell-based, rat and human
# Method: as §1, with “surgery.” for “surgery. Cerebral cortices without meninges were dissected from postnatal (P0-P2) Sprague-Dawley (SD, NCKU Laboratory Animal Center) rats and dissociated in 0.05% trypsin-EDTA (Biowest) at 37° C. for 10 min. Culture medium was added and pipetted for several times, and supernatant was removed after a centrifugation at 1,000 rpm for 5 minutes.”
# as §2
# The effects of MJ-66 on other glioma cell lines were further examined. […] Cell viability was assessed by MTS assay (mean±SEM, n=3). […]
# [4] = tested on: C6 glioma cells; assay: cell cycle assay by flow cytometry with propidium iodide; type: cell-based, rat; settings: 60 nM
# Method: To analyze cellular DNA content by flow cytometry, 3×10^5 cells were seeded in 10 cm dish and incubated for 24 hours at 37° C. […] At indicated time points (0, 6, 12, 24 and 48 hr), over 10^6 cells were suspended with 0.05% trypsin-EDTA, and fixed in 70% ethanol over 1 hour at −20° C. After washed by phosphate-buffered saline (PBS) twice, cells were then suspended with 1 ml propidium iodide/Triton-X 100 staining solution (20 μg/ml PI, 0.1% Triton-X 100 and 0.2 mg/ml ribonuclease A (RNase A, Sigma) in PBS) and incubated for 30 minutes at room temperature in the dark. After filtered by 35 μm nylon mesh (Falcon, 352235), the DNA content was then analyzed by flow cytometry (FACS can, BD Bioscience). The cell-cycle distribution (subG1, G1, S, G2/M, and >4N DNA content) of ten thousand cells was analyzed by WinMDI software.
# To investigate the cell cycle distribution of MJ-66-treated glioma cell, C6 glioma cells were treated with 60 nM MJ-66 for 0, 6, 12, 24, 36 and 48 hours, and the cell cycle distributions of the percentages of cells at subG1, G1, S and G2/M phases and DNA content of cells were monitored by flow cytometry with propidium iodide staining.
smiles,measurement,setting,value
"O=c1[nH]c(-c2cccc3ccccc23)nc2ccc(N3CCCC3)cc12 [Compound 23, 6-(Pyrrolidin-1-yl)-2-(naphthalen-1-yl)quinazolin-4-one]",IC50,[1],53 nM
same,IC50,[2],56 ± 9 nM
same,survival rates of glioma cell lines,"[3]; 0.00625-1 μM, 24, 48 and 72 hr, MTS assay",decreased in a time- and concentration-dependent manner
same,IC50,"[3]; Glioma cell, in vitro, read-out: IC50, growth of glioma cells",~60 nM
same,G2/M cell population,[4]; after 6 and 12 hours,significantly increased
same,sub G1 and >4N DNA content cell population,"[4]; after 24, 36 and 48 hours, time-dependent",increased
